Our source for the IC50 values is patent US10561655B2 (SYNBLia Therapeutics, Inc., priority 2018, dated 2020).

The structures appear in SMILES notation.

Full length SHP2 enzyme, sequence (Q06124 whole entry): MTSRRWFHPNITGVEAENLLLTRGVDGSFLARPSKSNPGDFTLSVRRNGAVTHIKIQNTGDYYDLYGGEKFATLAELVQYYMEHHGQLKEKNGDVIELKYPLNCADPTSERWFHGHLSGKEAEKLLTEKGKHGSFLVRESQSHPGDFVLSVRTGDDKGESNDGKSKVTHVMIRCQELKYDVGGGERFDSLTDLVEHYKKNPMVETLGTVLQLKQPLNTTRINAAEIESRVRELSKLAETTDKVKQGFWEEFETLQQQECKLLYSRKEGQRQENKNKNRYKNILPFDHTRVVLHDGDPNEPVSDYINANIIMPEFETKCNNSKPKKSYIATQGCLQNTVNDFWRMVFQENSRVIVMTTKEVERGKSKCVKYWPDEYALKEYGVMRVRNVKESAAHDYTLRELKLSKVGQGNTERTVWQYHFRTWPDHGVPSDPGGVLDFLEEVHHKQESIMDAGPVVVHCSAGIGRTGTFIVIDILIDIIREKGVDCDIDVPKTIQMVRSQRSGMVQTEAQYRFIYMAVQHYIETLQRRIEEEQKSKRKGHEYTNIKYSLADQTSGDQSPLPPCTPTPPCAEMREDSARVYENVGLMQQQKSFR

The first assay concerns the target Full length SHP2 enzyme (Homo sapiens (Human), UniProt Q06124). As to the kind of experiment: SHP2 Phosphatase Assays. As to conditions: full length SHP2 0.1 nM, 1 uM IRS-1 peptide, DiFMUP substrate, room temperature. The assay is classed as biochemical. On the procedure: IC50 values were determined at room temperature in 384-well black polystyrene plate, using a final reaction volume of 15 μl and the following assay buffer conditions: 60 mM Hepes (pH=7.2), 75 mM NaCl, 75 mM KCl, and 1 mM EDTA, 0.05% P-20, 5 mM dithiothreitol (DTT). Full length SHP2 enzyme (diluted to 0.1 nM in reaction buffer) were co-incubated with 1 uM IRS-1 peptide and 0.01 nM to 10 μM compounds of the disclosure for 60 min. The surrogate substrate DiFMUP (5 μL, […]) was added, and incubated at rt for 60 min. The reaction was then quenched by the addition of 5 μL of a 40 μM solution of bpV(Phen). The fluorescence signal was monitored using a microplate reader (Envision, Perkin-Elmer) using excitation and emission wavelengths of 360 nm and 450 nm, respectively. The inhibitor dose-response curves were analyzed using normalized IC50 regression curve fitting with control-based normalization.
One may read the IC50 as the point on the concentration scale where inhibition reaches its midpoint. For `C[C@@H]1OCC2(CCN(c3ncc(Sc4cc[nH]c(=O)c4Cl)[nH]c3=O)CC2)[C@@H]1N` [Compound 107, 3-((3S,4S)-4-amino-3-methyl-2-oxa-8-azaspiro[4.5]decan-8-yl)-6-((3-chloro-2-oxo-1,2-dihydropyridin-4-yl)thio)pyrazin-2(1H)-one], the IC50 is no more than 50 nM.

`CC1(CN)CCN(c2ncc(Sc3cccc(NC(=O)c4c(O)nc5n(c4=O)CCCC5)c3Cl)[nH]c2=O)CC1` [Compound 33, N-(3-((5-(4-(aminomethyl)-4-methylpiperidin-1-yl)-6-oxo-1,6-dihydropyrazin-2-yl)thio)-2-chlorophenyl)-2-hydroxy-4-oxo-6,7,8,9-tetrahydro-4H-pyrido[1,2-a]pyrimidine-3-carboxamide]: the half-inhibitory concentration (IC50) was no more than 50 nM. The compound `NC1C2CC2CC12CCN(c1ncc(Sc3cccc(Cl)c3Cl)[nH]c1=O)CC2` (stereo not shown) [Compound 13, 3-(2-aminospiro[bicyclo[3.1.0]hexane-3,4′-piperidin]-1′-yl)-6-((2,3-dichlorophenyl)thio)pyrazin-2(1H)-one] registered an IC50 of no more than 50 nM. In the case of `N[C@@H]1c2ccccc2CC12CCN(c1ncc(Sc3cccc(Cl)c3Cl)[nH]c1=O)CC2` [Compound 108, (S)-3-(1-amino-1,3-dihydrospiro[indene-2,4′-piperidin]-1′-yl)-6-((2,3-dichlorophenyl)thio)pyrazin-2(1H)-one], the IC50 is no more than 50 nM. In turn, `Cn1c(N2CCC(C)(CN)C2)nc(N)c(Sc2cccc(Cl)c2Cl)c1=O` (stereo not shown) [Compound 52, 6-amino-2-(3-(aminomethyl)-3-methylpyrrolidin-1-yl)-5-((2,3-dichlorophenyl)thio)-3-methylpyrimidin-4(3H)-one] gave an IC50 of no more than 50 nM. Turning to `NC1CCCC(n2ccc(-c3cccc(Cl)c3Cl)cc2=O)C1` (stereo not shown) [Compound 74, 1-(3-aminocyclohexyl)-4-(2,3-dichlorophenyl)pyridin-2(1H)-one], the IC50 was no more than 50 nM. In turn, `NC1C2CN(c3ncc(Sc4cccc(Cl)c4Cl)[nH]c3=O)CC12` (stereo not shown) [Compound 86, 3-(6-amino-3-azabicyclo[3.1.0]hexan-3-yl)-6-((2,3-dichlorophenyl)thio)pyrazin-2(1H)-one] showed an IC50 of no more than 50 nM.

For `CC1(CN)CCN(c2ncc(Sc3cccc(NC(=O)c4c(O)nc5[nH]ccn5c4=O)c3Cl)[nH]c2=O)CC1` [Compound 32, N-(3-((5-(4-(aminomethyl)-4-methylpiperidin-1-yl)-6-oxo-1,6-dihydropyrazin-2-yl)thio)-2-chlorophenyl)-7-hydroxy-5-oxo-1,5-dihydroimidazo[1,2-a]pyrimidine-6-carboxamide], the IC50 is no more than 50 nM. `N[C@@H]1c2ccccc2OC12CCN(c1ncc(Sc3cccc(Cl)c3Cl)[nH]c1=O)CC2` [Compound 87, (R)-3-(3-amino-3H-spiro[benzofuran-2,4′-piperidin]-1′-yl)-6-((2,3-dichlorophenyl)thio)pyrazin-2(1H)-one] yielded an IC50 of no more than 50 nM. In turn, `C[C@@H]1OCC2(CCN(c3ncc(Sc4ccnc(N)c4Cl)[nH]c3=O)CC2)[C@@H]1N` [Compound 77, 6-((2-amino-3-chloropyridin-4-yl)thio)-3-((3S,4S)-4-amino-3-methyl-2-oxa-8-azaspiro[4.5]decan-8-yl)pyrazin-2(1H)-one] gave an IC50 of no more than 50 nM. With `N[C@@H]1COCC12CCN(c1ncc(Sc3ccnc(Cl)c3Cl)[nH]c1=O)CC2` [Compound 88, (S)-3-(4-amino-2-oxa-8-azaspiro[4.5]decan-8-yl)-6-((2,3-dichloropyridin-4-yl)thio)pyrazin-2(1H)-one], the IC50 is no more than 50 nM.

Another assay concerns p-ERK/total ERK. As to the kind of experiment: p-ERK/total ERK Cellular Assay. Type of assay: cell-based. Particulars: p-ERK (AlphaLISA SureFire Ultra) / total ERK (HTRF), 2-6 hours incubation; read-out: IC50. On the procedure:
p-ERK/total ERK Cellular Assay
Cells were seeded in 384-well cell culture plate and incubated overnight. Test compounds were added to the cell plate and the plate was incubated for 2-6 hours. To detect p-ERK, the cell plate was used AlphaLISA SureFire Ultra p-ERK kit; to detect total ERK, the cell plate was used total ERK HTRF kit. The plate was read on the Envision.
A general note: In Alpha technology, singlet oxygen from a donor bead excites a nearby acceptor bead.
For the compound `CC1(CN)CCN(c2ncc(Sc3cccc(NC(=O)c4c(O)nc5n(c4=O)CCCC5)c3Cl)[nH]c2=O)CC1` [Compound 33, N-(3-((5-(4-(aminomethyl)-4-methylpiperidin-1-yl)-6-oxo-1,6-dihydropyrazin-2-yl)thio)-2-chlorophenyl)-2-hydroxy-4-oxo-6,7,8,9-tetrahydro-4H-pyrido[1,2-a]pyrimidine-3-carboxamide], the IC50 is less than 100 nM. As to `CC1(CN)CCN(c2ncc(Sc3cccc(NC(=O)c4c(O)nc5cnccn5c4=O)c3Cl)[nH]c2=O)CC1` [Compound 30, N-(3-((5-(4-(aminomethyl)-4-methylpiperidin-1-yl)-6-oxo-1,6-dihydropyrazin-2-yl)thio)-2-chlorophenyl)-2-hydroxy-4-oxo-4H-pyrazino[1,2-a]pyrimidine-3-carboxamide], the IC50 was less than 100 nM.
